Values of other authors, collected in patent US20220000834A1, “NOVEL ADMINISTRATION METHOD” (SUMITOMO DAINIPPON PHARMA CO., LTD., priority 2019, published 2022).

Tests used:
[1] = tested on: nerves in an injured part; conditions: Patent Documents 1 and 2
nerve cells = conditions: as low as

For CC(=O)c1cc2c(=O)c3c(C(=O)O)c(O)c(O)cc3oc2c(C(C)=O)c1-c1coc2cc(O)c(O)c(C(=O)O)c2c1=O [compound A], the “regeneration of nerves in an injured part” value [1] is given as “accelerates the regeneration of nerves in an injured part”.

B1: Sema3A: class 3 semaphorin; suppresses growth of neurite growth cone (protein, UniProt Q14563 21-771, looked up)
Semaphorin-3A: NYQNGKNNVPRLKLSYKEMLESNNVITFNGLANSSSYHTFLLDEERSRLYVGAKDHIFSFDLVNIKDFQKIVWPVSYTRRDECKWAGKDILKECANFIKVLKAYNQTHLYACGTGAFHPICTYIEIGHHPEDNIFKLENSHFENGRGKSPYDPKLLTASLLIDGELYSGTAADFMGRDFAIFRTLGHHHPIRTEQHDSRWLNDPKFISAHLISESDNPEDDKVYFFFRENAIDGEHSGKATHARIGQICKNDFGGHRSLVNKWTTFLKARLICSVPGPNGIDTHFDELQDVFLMNFKDPKNPVVYGVFTTSSNIFKGSAVCMYSMSDVRRVFLGPYAHRDGPNYQWVPYQGRVPYPRPGTCPSKTFGGFDSTKDLPDDVITFARSHPAMYNPVFPMNNRPIVIKTDVNYQFTQIVVDRVDAEDGQYDVMFIGTDVGTVLKVVSIPKETWYDLEEVLLEEMTVFREPTAISAMELSTKQQQLYIGSTAGVAQLPLHRCDIYGKACAECCLARDPYCAWDGSACSRYFPTAKRRTRRQDIRNGDPLTHCSDLHHDNHHGHSPEERIIYGVENSSTFLECSPKSQRALVYWQFQRRNEERKEEIRVDDHIIRTDQGLLLRSLQQKDSGNYLCHAVEHGFIQTLLKVTLEVIDTEHLEELLHKDDDGDGSKTKEMSNSMTPSQKVWYRDFMQLINHPNLNTMDEFCEQVWKRDRKQRRQRPGHTPGNSNKWKHLQENKKGRNRRTHEFERAPRSV
In the case of B1, the “concentration inducing regression of nerve cells” value (nerve cells) is given as 10 pM.
